Assay results reported in PMC9596378, “Discovery and molecular basis of subtype-selective cyclophilin inhibitors” (Nature Chemical Biology, 2022).
Values joined by “and” are separate entries in the source; they are usually repeats but may differ in a detail not shown here. Equal values may be shown once. Read-outs that look alike come from different tables or passages of the source. One block for each molecule: values may come before it.

Tests used:
Assay in all cases: Chymotrypsin coupled prolyl-isomerase assay
Format in all cases: biochemical
[1] = target: T1, CypA (Homo sapiens, UniProt P62937); details: for CypA prolyl-isomerase assay raw dose-response value: Fig. 3b source data, replicates
T1 construct: PPIA (UniProtKB Entry P62937: residues 1–165); made in house; host or cells: E. coli BL21(DE3)
Procedure, shortened: (§1)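 Steps: cyclophilin plus compound 5 min at 2–3 °C; α-chymotrypsin added, 5 min more; Suc-AAPF-AMC substrate in LiCl/trifluoroethanol injected and fluorescence followed 330 s. Finals: 5 nM enzyme, 25 µM chymotrypsin, 5 µM substrate, 0.25% DMSO.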

[2] = target: T2, CypC (Homo sapiens, UniProt P45877); details: for CypC prolyl-isomerase assay raw dose-response value: Fig. 3b source data, replicates; for IC50: wild-type CypC, read-out: Wild-Type Cyclophilin Prolyl Isomerase Inhibition IC50 Values, CypC
T2 construct: PPIC (UniProtKB Entry P45877: residues 24–212); host or cells: E. coli BL21(DE3)
Procedure, shortened: as §1

[3] = target: T3, CypE (Homo sapiens, UniProt Q9UNP9); details: for CypE prolyl-isomerase assay raw dose-response value: Fig. 3b source data, replicates; for IC50: wild-type CypE, read-out: Wild-Type Cyclophilin Prolyl Isomerase Inhibition IC50 Values, CypE
T3 construct: PPIE (UniProtKB Entry Q9UNP9: residues 131–301); host or cells: E. coli BL21(DE3)
Procedure, shortened: as §1

[4] = target: T4, CypG (Homo sapiens, UniProt Q13427); details: for CypG prolyl-isomerase assay raw dose-response value: Fig. 3b source data, replicates
T4 construct: PPIG (UniProtKB Entry Q13427: residues 1–179); His6 with thrombin site (pET28a LIC leader) (N); host or cells: E. coli BL21(DE3)
T4 sequence (Q13427 1-179): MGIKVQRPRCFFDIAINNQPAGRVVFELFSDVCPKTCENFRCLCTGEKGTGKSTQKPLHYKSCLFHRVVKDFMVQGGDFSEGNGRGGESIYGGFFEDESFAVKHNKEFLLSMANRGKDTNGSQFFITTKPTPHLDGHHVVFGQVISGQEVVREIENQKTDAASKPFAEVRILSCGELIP
Procedure, shortened: as §1

[5] = target: T5, CypH (Homo sapiens, UniProt O43447); details: for CypH prolyl-isomerase assay raw dose-response value: Fig. 3b source data, replicates
T5 construct: PPIH (UniProtKB Entry O43447: residues 1–177); His6 with TEV site (2BT vector leader) (N); made in house; host or cells: E. coli BL21(DE3)
Procedure, shortened: as §1

[6] = prolyl-isomerase inhibition, 5 nM cyclophilin, read-out: IC50 CypA
[7] = wild-type CypA, read-out: Wild-Type Cyclophilin Prolyl Isomerase Inhibition IC50 Values, CypA
[8] = wild-type CypG, read-out: Wild-Type Cyclophilin Prolyl Isomerase Inhibition IC50 Values, CypG
[9] = prolyl-isomerase inhibition, 5 nM cyclophilin, read-out: IC50 CypH
[10] = wild-type CypH, read-out: Wild-Type Cyclophilin Prolyl Isomerase Inhibition IC50 Values, CypH

T3 sequence (Q9UNP9 131-301): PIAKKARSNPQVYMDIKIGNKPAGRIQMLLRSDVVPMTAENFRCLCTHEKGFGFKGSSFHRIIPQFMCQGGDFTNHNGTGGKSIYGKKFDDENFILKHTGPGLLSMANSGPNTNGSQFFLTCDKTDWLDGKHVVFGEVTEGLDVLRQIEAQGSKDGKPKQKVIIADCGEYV
T1 sequence (P62937 whole entry, the tested form may be a part): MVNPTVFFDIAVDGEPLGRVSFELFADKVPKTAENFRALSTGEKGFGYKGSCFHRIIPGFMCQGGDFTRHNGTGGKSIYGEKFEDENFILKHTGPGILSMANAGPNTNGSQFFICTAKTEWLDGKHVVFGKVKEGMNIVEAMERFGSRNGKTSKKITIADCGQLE
T5 sequence (O43447 whole entry, the tested form may be a part): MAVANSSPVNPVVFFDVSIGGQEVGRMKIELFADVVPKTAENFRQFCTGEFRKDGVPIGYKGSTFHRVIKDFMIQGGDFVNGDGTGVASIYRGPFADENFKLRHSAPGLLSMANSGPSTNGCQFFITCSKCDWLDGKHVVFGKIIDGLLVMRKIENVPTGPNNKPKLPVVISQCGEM
T2 sequence (P45877 24-212): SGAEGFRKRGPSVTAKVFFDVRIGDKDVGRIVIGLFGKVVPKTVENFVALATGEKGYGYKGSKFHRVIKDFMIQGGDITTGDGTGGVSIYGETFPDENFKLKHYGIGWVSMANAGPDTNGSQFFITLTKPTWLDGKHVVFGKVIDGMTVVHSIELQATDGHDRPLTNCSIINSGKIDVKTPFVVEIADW

Structure (SMILES): NCCOCCNC(=O)[C@@H]1CCNC(=O)/C=C/C(=O)N2CCC[C@](Cc3ccccc3)(C2)C(=O)N[C@@H](Cc2ccc(-c3ccc(C#CC(=O)O)cc3)cc2)C(=O)NCc2ccccc2CC(=O)N1 [Compound B25]
IC50 ([1]; CypA column within the mutant section (comparator for CypA E81S/K82R), read-out: Mutant Cyclophilin Prolyl Isomerase Inhibition IC50 Values, CypA): 0.037 µM
CypA prolyl-isomerase assay raw dose-response value ([1]; Dose 0.00457247 µM): 0.1146 and 0.097 and 0.1434
CypA prolyl-isomerase assay raw dose-response value ([1]; Dose 0.0137174 µM): 0.07936 and 0.08714 and 0.118
CypA prolyl-isomerase assay raw dose-response value ([1]; Dose 0.0411523 µM): 0.05569 and 0.06344 and 0.07261
CypA prolyl-isomerase assay raw dose-response value ([1]; Dose 0.123457 µM): 0.03132 and 0.03338 and 0.03777
CypA prolyl-isomerase assay raw dose-response value ([1]; Dose 0.37037 µM): 0.02003 and 0.0199 and 0.02096
CypA prolyl-isomerase assay raw dose-response value ([1]; Dose 1.11111 µM): 0.015 and 0.01431 and 0.01411
CypA prolyl-isomerase assay raw dose-response value ([1]; Dose 3.33333 µM): 0.01402 and 0.01221 and 0.01255
CypA prolyl-isomerase assay raw dose-response value ([1]; Dose 10 µM): 0.01563 and 0.01147 and 0.01176
IC50 [1, 6]: 0.037 ± 0.007 µM
IC50 [1, 7]: 0.037 µM
CypC prolyl-isomerase assay raw dose-response value ([2]; Dose 0.0228624 µM): 0.03634 and 0.03032 and 0.04283
CypC prolyl-isomerase assay raw dose-response value ([2]; Dose 0.0685871 µM): 0.03426 and 0.03095 and 0.03961
CypC prolyl-isomerase assay raw dose-response value ([2]; Dose 0.205761 µM): 0.03174 and 0.03534
CypC prolyl-isomerase assay raw dose-response value ([2]; Dose 0.617284 µM): 0.02955 and 0.03116 and 0.0299
CypC prolyl-isomerase assay raw dose-response value ([2]; Dose 1.85185 µM): 0.02445 and 0.02477 and 0.02432
CypC prolyl-isomerase assay raw dose-response value ([2]; Dose 5.55556 µM): 0.0192 and 0.01832 and 0.02111
CypC prolyl-isomerase assay raw dose-response value ([2]; Dose 16.6667 µM): 0.016 and 0.01339 and 0.01312
CypC prolyl-isomerase assay raw dose-response value ([2]; Dose 50 µM): 0.01835 and 0.01198 and 0.01251
IC50 [2]: 1.8 µM
CypE prolyl-isomerase assay raw dose-response value ([3]; Dose 0.000457247 µM): 0.09478 and 0.08516 and 0.1307
CypE prolyl-isomerase assay raw dose-response value ([3]; Dose 0.00137174 µM): 0.1073 and 0.09145 and 0.116
CypE prolyl-isomerase assay raw dose-response value ([3]; Dose 0.00411523 µM): 0.07586 and 0.07841
CypE prolyl-isomerase assay raw dose-response value ([3]; Dose 0.0123457 µM): 0.04723 and 0.04807 and 0.05181
CypE prolyl-isomerase assay raw dose-response value ([3]; Dose 0.037037 µM): 0.02767 and 0.0265 and 0.02701
CypE prolyl-isomerase assay raw dose-response value ([3]; Dose 0.111111 µM): 0.01749 and 0.01613 and 0.01666
CypE prolyl-isomerase assay raw dose-response value ([3]; Dose 0.333333 µM): 0.01375 and 0.01292 and 0.01229
CypE prolyl-isomerase assay raw dose-response value ([3]; Dose 1 µM): 0.01434 and 0.0116 and 0.01112
IC50 [3]: 0.009 µM
CypG prolyl-isomerase assay raw dose-response value ([4]; Dose 0.0228624 µM): 0.06249 and 0.05548 and 0.0638
CypG prolyl-isomerase assay raw dose-response value ([4]; Dose 0.0685871 µM): 0.05565 and 0.04551* and 0.05901
CypG prolyl-isomerase assay raw dose-response value ([4]; Dose 0.205761 µM): 0.04568 and 0.0619
CypG prolyl-isomerase assay raw dose-response value ([4]; Dose 0.617284 µM): 0.03977 and 0.04815 and 0.06466
CypG prolyl-isomerase assay raw dose-response value ([4]; Dose 1.85185 µM): 0.05698 and 0.05304 and 0.05804
CypG prolyl-isomerase assay raw dose-response value ([4]; Dose 5.55556 µM): 0.0448 and 0.05687 and 0.05139
CypG prolyl-isomerase assay raw dose-response value ([4]; Dose 16.6667 µM): 0.04193 and 0.04196 and 0.0448
CypG prolyl-isomerase assay raw dose-response value ([4]; Dose 50 µM): 0.03044 and 0.02213 and 0.02754
IC50 ([4]; prolyl-isomerase inhibition, 5 nM cyclophilin, read-out: IC50 CypG): ~25 µM
IC50 [4, 8]: 25 µM
CypH prolyl-isomerase assay raw dose-response value ([5]; Dose 0.0228624 µM): 0.04387 and 0.03667 and 0.04369
CypH prolyl-isomerase assay raw dose-response value ([5]; Dose 0.0685871 µM): 0.04493 and 0.03523 and 0.04571
CypH prolyl-isomerase assay raw dose-response value ([5]; Dose 0.205761 µM): 0.04732 and 0.03749
CypH prolyl-isomerase assay raw dose-response value ([5]; Dose 0.617284 µM): 0.04296 and 0.03867 and 0.04263
CypH prolyl-isomerase assay raw dose-response value ([5]; Dose 1.85185 µM): 0.0451 and 0.03462 and 0.04053
CypH prolyl-isomerase assay raw dose-response value ([5]; Dose 5.55556 µM): 0.04418 and 0.03887 and 0.03972
CypH prolyl-isomerase assay raw dose-response value ([5]; Dose 16.6667 µM): 0.03817 and 0.03665 and 0.03617
CypH prolyl-isomerase assay raw dose-response value ([5]; Dose 50 µM): 0.02975 and 0.02514 and 0.02678
IC50 [5, 9]: ~50 µM
IC50 [5, 10]: 50 µM

Structure (SMILES): NCCCc1ccc(-c2ccc(C[C@@H]3NC(=O)[C@]4(Cc5ccccc5)CCCN(C4)C(=O)/C=C/C(=O)NCC[C@@H](C(=O)NCCOCCN)NC(=O)Cc4ccccc4CNC3=O)cc2)cc1 [Compound B32]
IC50 [1, 7]: 8 µM
IC50 [2]: 1.2 µM
IC50 [3]: 7 µM
IC50 [4, 8]: 11 µM
IC50 [5, 10]: > 50 µM

IC50 [1, 6]: ~60 µM
IC50 [1, 7]: 60 µM
IC50 [2]: 23 µM
IC50 [3]: 23 µM
IC50 [4, 8]: 16 µM
IC50 [5, 9]: ~100 µM
IC50 [5, 10]: 100 µM
Structure (SMILES): NCCOCCNC(=O)C1CCNC(=O)C=CC(=O)N2CCCC(C2)C(=O)NC(Cc2ccco2)C(=O)NCc2ccccc2CC(=O)N1 (stereo not shown) [JOMBt]
